According to article PMC11882793 (Nature Communications, 2025):
No end group written: not given here. *: point of attachment. FITC = O=C1OC2(c3ccc(O)cc3Oc3cc(O)ccc32)c2ccc(NC(=S)*)cc21

What was measured:
[1] = target: T1, NTD of CcLon (aa. 1-206) (Caulobacter vibrioides, UniProt P0CAW0); test: Fluorescence polarization, FITC-labeled degron peptides vs NTD; type: binding, C. crescentus; details: FP assay
T1 sequence (P0CAW0 1-206): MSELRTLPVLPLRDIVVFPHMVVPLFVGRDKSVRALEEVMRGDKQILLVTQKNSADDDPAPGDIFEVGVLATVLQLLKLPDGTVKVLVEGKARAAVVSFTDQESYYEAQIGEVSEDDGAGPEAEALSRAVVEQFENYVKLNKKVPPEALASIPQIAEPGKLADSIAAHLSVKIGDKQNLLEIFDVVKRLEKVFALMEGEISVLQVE

[2] = system: LarA-NTD complex; test: Fluorescence polarization, FITC-labeled degron peptides vs LarA-NTD complex; type: binding, C. crescentus; details: FP assay
[3] = target: FITC-labeled peptide derived from the wild-type C-terminal sequence of SciP (C. crescentus); test: fluorescence polarisation

Substance | FP binding to NTD (in words) [1] | FP binding to LarA-NTD complex (in words) [2] | Kd [3]
{FITC}-QSADRHGAAGARTTRAQQYR [pep-SciP-mut] | failed to bind | failed to bind | 
{FITC}-HELAPVSVH [pep-LarA-amidated] | no binding was observed | comparable to that of pep-LarA | 
{FITC}-HEAAPASAH [pep-LarA-mut] | failed to bind | failed to bind | 
LarA-NTD complex (from UniProt P0CAW0 1-206) |  |  | 413 µM
